Two molecules from ChEMBL document CHEMBL1126797 (J Med Chem, 1993) can be followed below.

What is called IC50 is the concentration that gives 50% inhibition.

The test system of experiment [1] is HT-29. The experiment is described as follows: Tumor volume in HT-29 cells after subcutaneous administration on days 16,20,23,27,30,34,37,41,44,48 at dose of 3.5 mg/kg. In kind it is functional, Homo sapiens.
Experiment [2] can be described thus: Number of metastases in K1735-M2 murine melanoma cells after subcutaneous administration on days1,4,6,8 at dose of 3.5 mg/kg. The format is functional, Mus musculus.
Experiment [3] concerns Mus musculus. The experiment is described as follows: Relative survival in L1210 lymphoid leukemic mice after subcutaneous administration on days 1,4,6,8 at dose of 3.5 mg/kg. The format is functional.
For experiment [4], the system named is Mus musculus. The experiment is described as follows: Relative survival in RAW117-H10 cells implanted mice in comparison to control at dose of 3.5 mg/kg. The format is functional.
Another experiment concerns the target T1, DNA topoisomerase 1 (Homo sapiens, UniProt P11387).
T1 sequence (P11387 whole entry): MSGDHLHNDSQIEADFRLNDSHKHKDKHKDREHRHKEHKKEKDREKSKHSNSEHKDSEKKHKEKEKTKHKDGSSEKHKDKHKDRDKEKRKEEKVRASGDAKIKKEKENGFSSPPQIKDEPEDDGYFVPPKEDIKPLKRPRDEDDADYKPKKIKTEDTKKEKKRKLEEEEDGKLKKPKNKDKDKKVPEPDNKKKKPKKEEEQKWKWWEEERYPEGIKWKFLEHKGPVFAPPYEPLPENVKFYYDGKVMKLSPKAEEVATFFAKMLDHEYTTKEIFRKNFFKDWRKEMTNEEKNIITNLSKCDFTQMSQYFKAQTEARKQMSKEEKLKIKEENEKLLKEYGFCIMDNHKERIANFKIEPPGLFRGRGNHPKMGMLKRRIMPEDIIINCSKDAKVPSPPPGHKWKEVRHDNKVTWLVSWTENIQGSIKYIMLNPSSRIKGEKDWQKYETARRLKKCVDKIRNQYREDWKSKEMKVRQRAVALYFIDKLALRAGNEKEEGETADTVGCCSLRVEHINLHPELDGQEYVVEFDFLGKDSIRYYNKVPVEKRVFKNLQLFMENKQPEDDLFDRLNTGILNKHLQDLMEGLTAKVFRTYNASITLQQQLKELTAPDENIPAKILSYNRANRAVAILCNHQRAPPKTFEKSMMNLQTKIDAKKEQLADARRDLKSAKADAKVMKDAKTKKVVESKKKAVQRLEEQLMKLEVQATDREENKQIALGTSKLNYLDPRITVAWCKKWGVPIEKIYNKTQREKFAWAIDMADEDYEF
The experiment is described as follows: Inhibition of Topoisomerase I by cleavage complex formation in human HL-60 cells. The format is cell-based.

Experiment [5] concerns HT-29. The experiment is described as follows: Tumor volume in HT-29 cells after subcutaneous administration on days 16,20,23,27,30,34,37,41,44,48 at dose of 1.5 mg/kg. The format is functional, Homo sapiens.
Experiment [6] in a line: Number of metastases in K1735-M2 murine melanoma cells after subcutaneous administration on days1,4,6,8 at dose of 1.5 mg/kg. In kind it is functional, Mus musculus.
The next experiment has as its system L1210. The experiment is described as follows: Log of initial tumor cell population minus log of tumor cell population at end of treatment in L1210 lymphoid leukemic mice. In kind it is functional, Mus musculus.
For experiment [7], the species on record is Mus musculus. The experiment is described as follows: Number of L1210 lymphoid leukemic mice cured out of […]. The format is functional.
Experiment [8] concerns Mus musculus. The experiment is described as follows: Highest active dose in L1210 lymphoid leukemic mice at dose range of 0.3-1.5 mg/kg. The format is functional.
The species named for experiment [9] is Mus musculus. The experiment is described as follows: Percent median survival time of treated leukemic mice compared to control. The format is functional.
Experiment [10] relates to Mus musculus. The experiment is described as follows: Relative survival in L1210 lymphoid leukemic mice after subcutaneous administration on days1,4,6,8 at dose of 1.5 mg/kg. The format is functional.
The test system of experiment [11] is Mus musculus. The experiment is described as follows: Relative survival in RAW117-H10 cells implanted mice in comparison to control at dose of 1.5 mg/kg. The format is functional.

Consider `CC[C@@](O)(C(=O)[O-])c1cc2n(c(=O)c1CO)Cc1cc3c(N)c4c(cc3nc1-2)OCO4.[Na+]`, for which the results for the Control (with HT-29 [1]; in experiment [2]) were 38% and 51%, respectively. The T/C with Mus musculus [3] is listed as 2.56; in the experiment with Mus musculus [4] it was 1.75. It took 4300 nM to reach half-maximal inhibition against DNA topoisomerase 1 (IC50).

For `CC[C@@]1(O)C(=O)OCc2c1cc1n(c2=O)Cc2cc3c(N)c4c(cc3nc2-1)OCO4`, the Control (in the experiment on HT-29 [5]; in experiment [6]) was 17% in each case. Moreover, the KE with L1210 is reported as 5.8. Besides, the Cures in the experiment listed under Mus musculus [7] is on record as 4. Besides, the Highest active dose with Mus musculus [8] is 1.5 mg/kg. Besides, the T/C in the experiment listed under Mus musculus [9] was 336%; in the experiment on Mus musculus [10], 1.98; with Mus musculus [11] it was 1.25. The molecule also had an IC50 against DNA topoisomerase 1 of 48 nM.
